The results in this text go back to US6780870B2, “Pyrimidine derivatives as selective inhibitors of COX-2” (SmithKline Beecham Corporation, priority 2000, dated 2004).

For one experiment, the target named is T1, human COX-2 (Homo sapiens, UniProt P35354).
T1 construct: expressed in transfected cells
T1 sequence (P35354 18-604): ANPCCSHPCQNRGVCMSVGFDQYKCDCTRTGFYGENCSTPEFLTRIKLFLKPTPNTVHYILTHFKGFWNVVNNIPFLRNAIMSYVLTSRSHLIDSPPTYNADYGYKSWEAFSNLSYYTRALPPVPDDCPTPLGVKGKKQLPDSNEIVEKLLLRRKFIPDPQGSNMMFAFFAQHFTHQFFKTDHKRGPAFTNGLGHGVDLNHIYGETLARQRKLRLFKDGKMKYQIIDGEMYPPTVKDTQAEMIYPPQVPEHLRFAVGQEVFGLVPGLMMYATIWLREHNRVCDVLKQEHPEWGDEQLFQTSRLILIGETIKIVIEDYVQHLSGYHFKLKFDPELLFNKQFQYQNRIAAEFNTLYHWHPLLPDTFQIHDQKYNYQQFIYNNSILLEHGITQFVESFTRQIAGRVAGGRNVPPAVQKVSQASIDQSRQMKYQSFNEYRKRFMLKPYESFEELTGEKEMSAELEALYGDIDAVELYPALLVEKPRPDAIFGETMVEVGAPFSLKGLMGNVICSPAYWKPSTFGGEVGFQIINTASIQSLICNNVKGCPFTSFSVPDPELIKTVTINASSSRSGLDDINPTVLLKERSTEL
In words: Inhibition of PGE2 release in COS cells stably transfected with human COX-2. It counts as cell-based. Conditions: COS cells stably transfected with cDNA for human COX-2; PGE2 release by enzyme immunoassay; 1 hour preincubation; 30 μM arachidonic acid, 15 minutes. On the procedure:
(§1) Inhibitory activity against human COX-1 and COX-2 was assessed in COS cells which had been stably transfected with cDNA for human COX-1 and human COX-2. 24 Hours prior to experiment, COS cells were transferred from the 175 cm^2 flasks in which they were grown, onto 24-well cell culture plates using the following procedure. The incubation medium (Dulbecco's modified eagles medium (DMEM) supplemented with heat-inactivated foetal calf serum (10% v/v), penicillin (100 IU/ml), streptomycin (100 μg/ml) and geneticin (600 μg/ml)) was removed from a flask of confluent cells (1 flask at confluency contains approximately 1×10^7 cells). 10 ml of phosphate buffered saline (PBS) was added to the flask to wash the cells. Having discarded the PBS, cells were then rinsed in 10 ml trypsin for 20 seconds, after which the trypsin was removed and the flask placed in an incubator (37°) for 1-2 minutes until cells became detached from the flask. The flask was then removed from the incubator and cells resuspended in 10 ml of fresh incubation medium. The contents of the flask was transferred to a 250 ml sterile container and the volume of incubation medium subsequently made up to 100 ml. 1 ml cell suspension was pipetted into each well of 4×24-well cell culture plates. The plates were then placed in an incubator (37° C., 95% air/5% CO2) overnight. If more than 1 flask of cells were required, the cells from the individual flasks were combined before being dispensed into the 24-well plates.
(§2) Following the overnight incubation, the incubation medium was completely removed from the 24-well cell culture plates and replaced with 250 μl fresh DMEM (37° C.). The test compounds were made up to 250× the required test concentration in DMSO and were added to the wells in a volume of 1 μl. Plates were then mixed gently by swirling and then placed in an incubator for 1 hour (37° C., 95% air/5% CO2). […] Plates were then incubated for a further 15 minutes, after which the incubation medium was removed from each well of the plates and stored at −20° C., prior to determination of prostaglandin E2 (PGE2) levels using enzyme immunoassay. […] The selectivity ratio of inhibition of COX-1 versus COX-2 was calculated by comparing respective IC50 values.

In the next experiment the target is T2, human COX-1 (Homo sapiens, UniProt P23219).
T2 construct: expressed in transfected cells
Put plainly: Inhibition of PGE2 release in COS cells stably transfected with human COX-1. It counts as cell-based. Conditions: COS cells stably transfected with cDNA for human COX-1; PGE2 release by enzyme immunoassay; 1 hour preincubation; 30 μM arachidonic acid, 15 minutes. How it is done: as §1, §2

The structures appear in SMILES notation.

T2 sequence (P23219 24-599): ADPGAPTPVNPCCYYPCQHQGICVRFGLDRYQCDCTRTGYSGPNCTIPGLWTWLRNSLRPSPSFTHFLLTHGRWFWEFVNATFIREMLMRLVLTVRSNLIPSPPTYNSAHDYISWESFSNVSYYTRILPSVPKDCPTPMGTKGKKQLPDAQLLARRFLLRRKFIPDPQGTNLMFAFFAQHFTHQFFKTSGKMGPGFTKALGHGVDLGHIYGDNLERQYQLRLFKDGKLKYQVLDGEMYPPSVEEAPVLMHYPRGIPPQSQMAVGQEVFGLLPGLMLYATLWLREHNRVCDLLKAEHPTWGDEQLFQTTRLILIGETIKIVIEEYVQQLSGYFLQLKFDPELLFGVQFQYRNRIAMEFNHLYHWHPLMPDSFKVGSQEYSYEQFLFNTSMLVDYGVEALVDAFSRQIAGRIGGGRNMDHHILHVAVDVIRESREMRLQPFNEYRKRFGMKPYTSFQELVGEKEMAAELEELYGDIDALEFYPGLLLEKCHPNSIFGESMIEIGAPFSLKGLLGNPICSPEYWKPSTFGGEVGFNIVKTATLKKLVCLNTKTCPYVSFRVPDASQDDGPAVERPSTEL

As usually defined, the IC50 is the point on the concentration scale where inhibition reaches its midpoint. In the case of `CS(=O)(=O)c1ccc(-c2cc(C(F)(F)F)nc(NCc3cccnc3)n2)cc1` [Example 2, 4-[4-(Methylsulfonyl)phenyl]-N-(pyridin-3-ylmethyl)-6-(trifluoromethyl)pyrimidin-2-amine], the results for the IC50 on human COX-2 and at human COX-1 were 10.8 nM and over 100000 nM, respectively.
With `COc1ccc(CNc2nc(-c3ccc(S(C)(=O)=O)cc3)cc(C(F)(F)F)n2)cc1` [Example 9, N-(4-methoxybenzyl)-4-[4-(methylsulfonyl)phenyl]-6-(trifluoromethyl)pyrimidin-2-amine], the IC50 on human COX-2 was 34 nM; at human COX-1 it was over 100000 nM.
`CS(=O)(=O)c1ccc(-c2cc(C(F)(F)F)nc(NCc3ccccn3)n2)cc1` [Example 3, 4-[4-(Methylsulfonyl)phenyl]-N-(pyridin-2-ylmethyl)-6-(trifluoromethyl)pyrimidin-2-amine]: the IC50 was 2.5 nM at human COX-2 and over 100000 nM at human COX-1.
The corresponding values for `CS(=O)(=O)c1ccc(-c2cc(C(F)(F)F)nc(NCc3ccccc3)n2)cc1` [Example 4, 4-[4-(Methylsulfonyl)phenyl]-N-(phenylmethyl)-6-(trifluoromethyl)-2-pyrimidinamine] are 0.25 nM and over 100000 nM.
Consider `CS(=O)(=O)c1ccc(-c2cc(C(F)(F)F)nc(NCc3ccncc3)n2)cc1` [Example 1, 4-[4-(Methylsulfonyl)phenyl]-N-(pyridin-4-ylmethyl)-6-(trifluoromethyl)pyrimidin-2-amine], for which the IC50 against human COX-2 was 1.3 nM; at human COX-1 it was over 100000 nM.
